Tested on: spinal cord dorsal horn (L4) neuronal oscillation
Assay: Spinal cord dorsal horn LFP/PSD recording after intradermal capsaicin injection (model of acute pain)
Type: in vivo, rat
Conditions: anesthetized rats, FIG. 1B
Procedure: FIG. 1A is a schematic showing electrode placement in the spinal cord dorsal horn (L4) for the recoding of local field potential (LFP) from anesthetized rats (n=3 rats/group).
Experiments were conducted on anesthetized Sprague Dawley rats (200-250 g). […] LFP was sampled at a high frequency (25,000 Hz) and down-sampled offline to 250 Hz.
Natural sensory stimuli (e.g. brush and pinch) and intradermal injections of capsaicin were applied to the receptive field in the hindpaw corresponding to the recording site in the spinal cord. […] PSD plots the distribution of the power amplitude of a waveform as a function of frequency. Spontaneous oscillation in the spinal cord dorsal horn was enhanced compared to baseline LFP recording in response to capsaicin injection in the ipsilateral foot within physiologically relevant frequency bands, e.g., theta and alpha, oscillated at baseline. […] Thus, oscillation was normalized with systemic administration of an analgesic compound.

Structure (SMILES) | Spontaneous oscillation in the spinal cord dorsal horn (PSD) compared to baseline LFP recording (intradermal 5% capsaicin injection in the ipsilateral foot, theta and alpha bands) | Effect on capsaicin-enhanced PSD normalized to baseline (ibuprofen 400 mg/Kg intraperitoneally, after intradermal 5% capsaicin, n=3 rats/group)
COc1cc(CNC(=O)CCCC/C=C/C(C)C)ccc1O [capsaicin] | enhanced | –
CC(C)Cc1ccc(C(C)C(=O)O)cc1 (centres unmarked) [ibuprofen] | – | mitigation of the enhanced PSD

— patent US10835170B2, “Methods for detecting neuronal oscillation in the spinal cord associated with pain and diseases or disorders of the nervous system” (Rhode Island Hospital, priority 2015, dated 2020)
